From the supplement of paper PMC10307832

What was measured:
Assay in all cases: relative viability (nuclei count vs DMSO), 5 days (fraction); higher = more cells survive
Bortezomib + Vorinostat = compound: CC(C)C[C@H](NC(=O)[C@H](Cc1ccccc1)NC(=O)c1cnccn1)B(O)O [Bortezomib] + O=C(CCCCCCC(=O)Nc1ccccc1)NO [Vorinostat] (partner 1 µM)
Outline: (§1)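 Dosing by pin tool came one day after lung cancer cell lines were seeded in 1536-well plates, using either one drug or a fixed anchor-drug dose plus five library-drug doses (not always all listed) in √10 steps. After 5 days, nuclei were counted on 4× images. Relative viability is treated-well nuclei count divided by vehicle-well nuclei count, and values are medians of duplicate plates.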

Bortezomib + OSI-027 = compound: CC(C)C[C@H](NC(=O)[C@H](Cc1ccccc1)NC(=O)c1cnccn1)B(O)O [Bortezomib] + COc1cccc2cc(-c3nc([C@H]4CC[C@H](C(=O)O)CC4)n4ncnc(N)c34)[nH]c12 [OSI-027] (partner 0.5 µM)
Outline: as §1

[1] = compound: CC1=CC(=NN1)NC2=CC(=NC(=N2)/C=C/C3=CC=CC=C3)N4CCN(CC4)C + CS(=O)(=O)CCNCc1ccc(-c2ccc3ncnc(Nc4ccc(OCc5cccc(F)c5)c(Cl)c4)c3c2)o1 [Lapatinib] (partner 2 µM)
Outline: as §1

Obatoclax + Pictilisib = compound: COC1=CC(c2cc3ccccc3[nH]2)=N/C1=C\c1[nH]c(C)cc1C [Obatoclax] + CS(=O)(=O)N1CCN(Cc2cc3nc(-c4cccc5[nH]ncc45)nc(N4CCOCC4)c3s2)CC1 [Pictilisib] (partner 1 µM)
Outline: as §1

| Cell Line | relative viability (Bortezomib + Vorinostat; first compound 0.0002 µM) | relative viability (Bortezomib + Vorinostat; first compound 0.000632 µM) | relative viability (Bortezomib + Vorinostat; first compound 0.002 µM) | relative viability (Bortezomib + Vorinostat; first compound 0.006325 µM) | relative viability (Bortezomib + Vorinostat; first compound 0.02 µM) | relative viability (Bortezomib + OSI-027; first compound 0.0002 µM) | relative viability (Bortezomib + OSI-027; first compound 0.000632 µM) | relative viability (Bortezomib + OSI-027; first compound 0.002 µM) | relative viability (Bortezomib + OSI-027; first compound 0.006325 µM) | relative viability (Bortezomib + OSI-027; first compound 0.02 µM) | relative viability ([1]; first compound 0.08 µM) | relative viability ([1]; first compound 0.253 µM) | relative viability ([1]; first compound 0.8 µM) | relative viability ([1]; first compound 2.53 µM) | relative viability ([1]; first compound 8 µM) | relative viability (Obatoclax + Pictilisib; first compound 0.01 µM) | relative viability (Obatoclax + Pictilisib; first compound 0.03162 µM) | relative viability (Obatoclax + Pictilisib; first compound 0.1 µM) | relative viability (Obatoclax + Pictilisib; first compound 0.3162 µM) | relative viability (Obatoclax + Pictilisib; first compound 1 µM) |
| --- | --- | --- | --- | --- | --- | --- | --- | --- | --- | --- | --- | --- | --- | --- | --- | --- | --- | --- | --- | --- |
| NCI-H2342 | 1.01 | 0.789 | 0.838 | 0.748 | 0.627 | 0.656 | 0.524 | 0.616 | 0.634 | 0.587 | – | – | – | – | – | – | – | – | – | – |
| HCC-827 | 0.802 | 0.883 | 0.799 | 0.814 | 0.182 | 0.837 | 0.747 | 0.859 | 0.236 | 0.103 | 0.201 | 0.168 | 0.212 | 0.146 | 0.124 | 1.04 | 0.948 | 0.953 | 0.916 | 1.04 |
| NCI-H322M | 0.841 | 0.696 | 0.826 | 0.393 | 0.491 | 0.524 | – | 0.519 | 0.288 | 0.27 | 0.56 | 0.67 | 0.507 | 0.321 | 0.208 | 0.545 | 0.484 | 0.665 | 0.467 | 0.5 |
| ChaGo-K-1 | 0.709 | 0.753 | 0.827 | 0.441 | 0.162 | 0.576 | 0.539 | 0.623 | 0.48 | 0.149 | – | – | – | – | – | 0.77 | 0.504 | – | 0.675 | 0.877 |
| BEN | 0.559 | 0.586 | 0.558 | 0.509 | 0.317 | 0.302 | 0.288 | 0.28 | 0.259 | 0.167 | 0.75 | 0.668 | 0.742 | 0.326 | 0.229 | 0.534 | 0.57 | 0.447 | 0.54 | 0.587 |
| NCI-H2347 | 0.621 | 0.526 | 0.384 | 0.28 | 0.235 | 0.559 | 0.367 | 0.291 | 0.182 | 0.194 | 0.908 | 0.95 | 1.04 | 0.938 | 0.99 | 0.904 | 0.648 | 0.695 | 0.489 | 0.831 |
| LOU-NH91 | 0.88 | 0.816 | 0.413 | 0.313 | 0.359 | 0.688 | 0.68 | 0.581 | 0.298 | 0.251 | 0.669 | 0.785 | 0.698 | 0.567 | 0.333 | 0.541 | 0.503 | 0.505 | 0.469 | 0.533 |
| NCI-H2228 | 0.694 | 0.73 | 0.101 | 0.124 | 0.108 | 0.51 | 0.674 | 0.294 | 0.0867 | 0.115 | 1.16 | 0.85 | 0.685 | 0.103 | 0.0435 | 0.278 | 0.419 | 0.384 | 0.294 | 0.174 |
| NCI-H358 | 0.699 | 0.71 | 0.405 | 0.0638 | 0.0768 | 0.849 | 0.547 | 0.703 | 0.0722 | 0.0716 | 0.511 | 0.471 | 0.335 | 0.147 | 0.134 | 0.322 | 0.297 | 0.261 | 0.288 | 0.23 |
| HCC-366 | 0.352 | 0.377 | 0.33 | 0.113 | 0.026 | 0.821 | 0.539 | 1.1 | 0.742 | 0.047 | 0.928 | 1.13 | 0.996 | 0.0251 | 0.0162 | 0.136 | 0.151 | 0.172 | 0.159 | 0.12 |
| NCI-H2405 | 0.977 | 1.02 | 0.812 | 0.133 | 0.119 | 0.635 | 0.589 | 0.661 | 0.319 | 0.205 | 1.09 | 0.87 | 1.22 | 0.696 | 0.133 | 0.508 | 0.461 | – | 0.497 | 0.392 |
| Calu-6 | – | – | – | – | – | – | – | – | – | – | 0.93 | 0.966 | 0.793 | 0.195 | 0.137 | 0.91 | 0.963 | 0.731 | 0.491 | 0.105 |
| 201T | 0.964 | 0.936 | 0.993 | 0.916 | 0.328 | 0.694 | 0.75 | 0.753 | 0.551 | 0.138 | 1.02 | 1.07 | 1.04 | 0.946 | 0.915 | 0.679 | 0.648 | 0.741 | 0.678 | 0.687 |
| CAL-12T | 0.781 | 0.922 | 0.691 | 0.281 | 0.0995 | 0.757 | 0.578 | 0.754 | 0.165 | 0.129 | 0.654 | 0.778 | 0.663 | 0.324 | 0.141 | 0.395 | 0.472 | 0.396 | 0.223 | 0.395 |
